Experiment [1] concerns HepG2. Kind of experiment: In vitro antitumor MTT assay, HepG2. It counts as cell-based, human. The conditions noted are these: Homo sapiens, HepG2; MTT, mean ± S.D. of three experiments. How it is done: (§1) The antitumor assay was performed against the human cancer cell lines: HepG2, PC3, and MCF-7. The chemicals used in this test were supplied by Sigma-Aldrich with high analytical grade. National Cancer Institute (Cairo, Egypt) was the supplier of the cell lines tested which originally obtained from American Type Culture Collection (ATCC). MTT protocol was applied to quantitatively measure the antiproliferative activity of the new derivatives. In this test, the colour change is attributed to that the yellow tetrazolium bromide (MTT) is converted to formazan derivative which has purple colour. This biochemical reaction occurs only in viable cells by mitochondrial succinate dehydrogenase. The tested cells were initially cultured in RPMI-1640 medium with foetal bovine serum (10%). To the incubated cell, streptomycin (100 µg/mL) and penicillin (100 units/mL) were added in a 5% CO2 incubator at 37 °C. Then seeding of the cells was performed in a 96-well plate under 5% CO2 and at density of 1.0 × 10^4 cells/well at 37 °C for 48 h. Various non-toxic concentrations of the tested candidates were added and the cells were then incubated for further 24 h to the cells treated with the new compounds, MTT solution (20 µL at 5 mg/mL) was added, followed by 4 h incubation. One hundred microlitres of Dimethyl sulfoxide (DMSO) were added into each well to dissolve the purple formazan formed which is colorimetrically absorbed at 570 nm using a plate reader (EXL 800, USA). Finally, the percentages of cell viability was obtained as (A570 of treated samples/A570 of untreated sample) × 100.
(In general: Formazan colour is commonly taken as a measure of viable cells.)

The subject of another experiment is Bcl-2. Kind of experiment: Apoptotic marker level in HepG2, Bcl-2. The experiment is classed as cell-based, human. Conditions: HepG2, at IC50, 24 h; control 5.761. Here is the method: (§2) HepG2 cells were cultured and treated with compound 15d for 24 h. after that cells were collected and washed with PBS, then were collected and lysed by adding it to the extraction buffer containing protease inhibitors (1 ml per 1 × 10^6 cells.) then the lysate was diluted immediately before the assay. Caspase-3, BAX, Bcl-2, and p53 level was measured by using Quantikine-Human active kits (R&D Systems, Inc. Minneapolis, USA) according to the manufacturer protocols.

A further experiment relates to Caspase-3. Kind of experiment: Apoptotic marker level in HepG2, Caspase-3. It counts as cell-based, human. The conditions noted are these: HepG2, at IC50, 24 h; control 49.6274. How it is done: as §2
The next experiment concerns the target T1, VEGFR-2 kinase (Homo sapiens, UniProt P35968).
T1 construct: purchased
Description: VEGFR-2 inhibition testing (ELISA kit). It counts as biochemical. How it is done:
Enzyme linked immunosorbent assay (ELISA) technique was applied to human VEGFR-2 ELISA kit to calculate IC50 of all new derivatives against VEGFR-2 kinase. The antibody specific to the enzyme was planted on a 96 well microplate to which different micromolar concentrations of the positive control and the new compounds was added. […] Finally, stop solution (50 µL) was added and the reading was immediately determined at 450 nm. To get the standard curve, the concentrations used were presented on the X-axis and the corresponding absorbances were on the Y-axis.
(ELISA stands for enzyme-linked immunosorbent assay.)

Experiment [2] has as its system HepG2. Kind of experiment: Effect on cell cycle of HepG2 (PI flow cytometry). It counts as cell-based, human. The conditions noted are these: at its IC50. Here is the method: The protocol reported by Wang et al.[35] was followed to determine the effect of 15d on cell cycle of HepG2. The cancer cells (2 × 10^5 cells) were seeded and incubated in each of six-well plates for 24 h. The cells were further incubated at 37 °C and 5% CO2 after addition of foetal bovine serum (FBS, 10%). The medium was replaced by DMSO solution (1% v/v) in which 9.6 µg of compound 15d was dissolved. Well plates were then incubated for 48 h and then rinsed with cold phosphate-buffered saline (PBS), fixed with ethanol (70%) and washed again with PBS. DNA fluorochrome propidium iodide (PI) was used to stain the cells which were then kept for 15 min at 37 °C. FACS Calibre flow cytometer was used to analyse the samples.
A general note: A flow cytometer gives signals particle by particle.

A further experiment deals with PC3. Kind of experiment: In vitro antitumor MTT assay, PC3. It counts as cell-based, human. The conditions noted are these: Homo sapiens, PC-3; MTT, mean ± S.D. of three experiments. How it is done:
as §1

The target of a further experiment is T2, HER2 (Homo sapiens, UniProt P04626).
T2 construct: purchased Sigma
Kind of experiment: Multi-kinase assay (HTRF), HER2. The experiment is classed as biochemical. Here is the method: (§3) Different kinases and ATP were obtained from Sigma. The specified kinase and its substrate was incubated with compound for 5 min in buffer solution to start the enzymatic reaction; ATP was then added to the reaction mixture and was maintained for 30 min at room temperature.

A further experiment deals with WI-38. Kind of experiment: Cytotoxicity against normal lung fibroblasts (MTT). The experiment is classed as cell-based. Conditions: normal human lung fibroblasts. How it is done: as §1
Of note, the cytotoxicity against normal human lung fibroblasts cell line (WI-38) were examined for the nine selected compounds.

In experiment [3] the test system is HepG2. Description: Effect on apoptosis rate of HepG2 (Annexin V-FITC/PI). The experiment is classed as cell-based, human. Here is the method: Apoptosis ratio of HepG2 treated with 9.6 µg of compound 15d in comparison with untreated HepG2 cells was calculated according to the reported method using Annexin V fluorescein isothiocyanate (V-FITC)/PI kit[36].
A further experiment has as its system P53. Kind of experiment: Apoptotic marker level in HepG2, p53. The experiment is classed as cell-based, human. Conditions: HepG2, at IC50, 24 h; control 42.84. How it is done: as §2
In experiment [4] the test system is human cancer cell lines HepG2, PC3, MCF-7. Description: In vitro antitumor MTT assay, panel of HepG2, PC3 and MCF-7. The experiment is classed as cell-based. Conditions: range over HepG2, PC3 and MCF-7, read-out: IC50 against human cancer cell lines. Here is the method: as §1
The next experiment has as its target FGFR. Description: Multi-kinase assay (HTRF), FGFR. It counts as biochemical. Here is the method:
as §3

A further experiment deals with MCF-7. Description: In vitro antitumor MTT assay, MCF-7. The experiment is classed as cell-based, human. The conditions noted are these: Homo sapiens, MCF7; MTT, mean ± S.D. of three experiments. Here is the method: as §1
In a further experiment the test system is BAX. Kind of experiment: Apoptotic marker level in HepG2, BAX. The experiment is classed as cell-based, human. Conditions: HepG2, at IC50, 24 h; control 40.62. How it is done:
as §2

Molecules are shown by their SMILES.

T1 sequence (P35968 20-1356): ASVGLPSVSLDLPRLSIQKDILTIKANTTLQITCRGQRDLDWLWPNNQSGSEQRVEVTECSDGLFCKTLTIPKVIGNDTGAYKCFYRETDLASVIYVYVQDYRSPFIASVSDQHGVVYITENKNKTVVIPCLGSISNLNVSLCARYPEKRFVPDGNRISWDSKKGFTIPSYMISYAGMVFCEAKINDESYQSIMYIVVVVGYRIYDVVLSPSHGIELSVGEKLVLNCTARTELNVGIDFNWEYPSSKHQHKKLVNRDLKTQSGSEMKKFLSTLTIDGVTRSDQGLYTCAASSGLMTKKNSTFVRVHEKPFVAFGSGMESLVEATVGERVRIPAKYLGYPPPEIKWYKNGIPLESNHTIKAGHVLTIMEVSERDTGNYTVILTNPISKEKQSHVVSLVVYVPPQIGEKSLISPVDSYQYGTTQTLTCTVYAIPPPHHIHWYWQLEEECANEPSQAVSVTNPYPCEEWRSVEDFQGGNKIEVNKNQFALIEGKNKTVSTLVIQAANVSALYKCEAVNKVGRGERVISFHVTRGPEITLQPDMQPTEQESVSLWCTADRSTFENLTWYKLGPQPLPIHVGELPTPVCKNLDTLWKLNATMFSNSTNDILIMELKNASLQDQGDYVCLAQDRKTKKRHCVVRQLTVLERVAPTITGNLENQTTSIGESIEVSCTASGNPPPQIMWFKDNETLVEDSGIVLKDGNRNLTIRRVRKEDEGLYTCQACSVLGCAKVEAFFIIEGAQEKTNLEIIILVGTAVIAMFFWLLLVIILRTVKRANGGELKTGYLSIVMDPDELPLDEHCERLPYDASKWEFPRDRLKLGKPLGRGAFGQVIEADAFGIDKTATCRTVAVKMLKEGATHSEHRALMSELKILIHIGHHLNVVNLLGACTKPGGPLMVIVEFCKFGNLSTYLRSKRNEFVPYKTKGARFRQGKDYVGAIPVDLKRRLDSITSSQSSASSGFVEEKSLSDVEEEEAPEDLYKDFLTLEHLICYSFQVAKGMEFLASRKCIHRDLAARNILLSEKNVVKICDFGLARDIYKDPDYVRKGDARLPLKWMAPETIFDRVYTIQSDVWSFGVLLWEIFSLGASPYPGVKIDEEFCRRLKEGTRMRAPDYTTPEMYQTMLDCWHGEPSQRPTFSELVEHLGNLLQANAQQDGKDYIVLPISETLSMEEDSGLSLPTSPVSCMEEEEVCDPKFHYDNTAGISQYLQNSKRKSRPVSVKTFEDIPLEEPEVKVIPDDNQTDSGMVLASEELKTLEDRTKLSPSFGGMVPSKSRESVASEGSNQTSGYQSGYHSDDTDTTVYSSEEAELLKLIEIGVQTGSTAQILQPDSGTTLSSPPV
T2 sequence (P04626 23-1255): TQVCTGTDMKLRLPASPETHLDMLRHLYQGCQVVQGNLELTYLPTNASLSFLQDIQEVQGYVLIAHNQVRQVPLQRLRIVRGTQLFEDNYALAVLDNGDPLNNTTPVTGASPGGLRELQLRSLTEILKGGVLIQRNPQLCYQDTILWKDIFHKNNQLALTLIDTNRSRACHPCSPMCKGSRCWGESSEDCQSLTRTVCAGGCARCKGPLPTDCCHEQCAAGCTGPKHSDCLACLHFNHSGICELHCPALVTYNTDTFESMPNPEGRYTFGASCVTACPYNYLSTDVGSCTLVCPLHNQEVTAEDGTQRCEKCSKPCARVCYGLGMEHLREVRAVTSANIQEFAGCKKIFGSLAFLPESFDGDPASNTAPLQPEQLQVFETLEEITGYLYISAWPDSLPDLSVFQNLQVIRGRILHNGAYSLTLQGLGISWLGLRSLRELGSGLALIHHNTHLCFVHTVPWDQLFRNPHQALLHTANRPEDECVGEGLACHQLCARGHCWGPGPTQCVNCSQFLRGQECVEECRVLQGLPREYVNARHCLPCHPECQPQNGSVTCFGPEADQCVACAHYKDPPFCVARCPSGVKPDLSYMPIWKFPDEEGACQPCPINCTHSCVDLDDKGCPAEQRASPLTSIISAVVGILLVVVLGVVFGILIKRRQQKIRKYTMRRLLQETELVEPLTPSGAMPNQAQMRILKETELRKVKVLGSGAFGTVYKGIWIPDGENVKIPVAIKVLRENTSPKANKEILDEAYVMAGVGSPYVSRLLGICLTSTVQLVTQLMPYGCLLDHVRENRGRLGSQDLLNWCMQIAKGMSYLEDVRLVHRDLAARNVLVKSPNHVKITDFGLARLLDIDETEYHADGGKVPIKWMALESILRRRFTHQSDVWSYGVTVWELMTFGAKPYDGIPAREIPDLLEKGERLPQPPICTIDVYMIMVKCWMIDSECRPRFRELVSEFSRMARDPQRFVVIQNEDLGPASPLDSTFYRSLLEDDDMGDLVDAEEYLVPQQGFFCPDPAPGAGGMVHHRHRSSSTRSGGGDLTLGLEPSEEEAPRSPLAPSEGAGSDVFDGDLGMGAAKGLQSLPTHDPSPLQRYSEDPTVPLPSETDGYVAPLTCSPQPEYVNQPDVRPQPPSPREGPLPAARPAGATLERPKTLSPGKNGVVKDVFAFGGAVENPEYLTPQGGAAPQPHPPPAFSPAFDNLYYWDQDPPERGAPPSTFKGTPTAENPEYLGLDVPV

As a reminder, the IC50 is the point on the concentration scale where inhibition reaches its midpoint. As to `O=C(Nc1ccc(Oc2nc(Cl)nc3ccccc23)cc1)c1cccnc1` [Compound 15d, N-(4-((2-Chloroquinazolin-4-yl)oxy)phenyl)nicotinamide], the IC50 is 24.1 ± 2.12 µM in the experiment with HepG2 [1]; 0.06 ± 0.00145 µM against VEGFR-2 kinase; 40.9 ± 3.46 µM with PC3; 0.253 ± 0.0016 µM at HER2; 221 ± 2.55 µM in the experiment with WI-38; 17.4 to 47.1 µM in experiment [4]. Moreover, the figures for the IC50 on FGFR and with MCF-7 were 0.381 ± 0.0018 µM and 33.4 ± 2.92 µM, respectively. The Bcl-2 level in the experiment on Bcl-2 was 1.385 pg/mL. In the experiment on Caspase-3, this compound returned a Casp3 level of 561.427 pg/mL. Besides, the “cell cycle phases in which growth of HepG2 is stopped” value in the experiment with HepG2 [2] is “both G2/M and pre G1 phases”. Further, the “% Apoptosis Late” value in the experiment with HepG2 [3] (HepG2, at IC50, control 0.33) is recorded as 7.13%. The “% Apoptosis Early” value in the experiment on HepG2 [3] (HepG2, at IC50, control 0.87) came out at 5.33%. Also, the “% Necrosis” value in the experiment on HepG2 [3] (HepG2, at IC50, control 1.17) is listed as 2.35%. Besides, the “Total (apoptosis and necrosis)” value in the experiment with HepG2 [3] (HepG2, at IC50, control 2.37) is listed as 14.81%. Further, the “fold increase in apoptosis of HepG2” value with HepG2 [3] (at IC50, versus control) came to 10 folds. Moreover, in the experiment on HepG2 [3] (at IC50, control […]), the “apoptosis rate of HepG2” value was determined as 12.46%. The P53 level with P53 was 415.027 pg/mL. Further, the BAX level in the experiment on BAX is recorded as 395.04 pg/mL.

For the origin of these results see article PMC8757611, “Synthesis, biological evaluation, and molecular docking of new series of antitumor and apoptosis inducers designed as VEGFR-2 inhibitors” (Journal of Enzyme Inhibition and Medicinal Chemistry, 2022).
